# Laboratory results as given in patent US11447460B2, “Compounds and compositions for treating conditions associated with NLRP activity” (Novartis AG, priority 2016, dated 2022).
# Where two headings read alike, the source gives them in different places.
# System: IL-1β production in PMA-differentiated THP-1 cells
# Assay: IL-1β production in PMA-differentiated THP-1 cells stimulated with gramicidin (hTHP-1 assay, 2% bovine serum; Bioassays 1 and 2)
# Type: cell-based, human
# Conditions: hTHP-1 assay containing 2% bovine serum, Table 12, by Example #, read-out: Average IC50 of compounds in hTHP-1 assay
# Experimental: IL-1β Production in PMA-Differentiated THP-1 Cells Stimulated with Gramicidin.
# Cell culture-THP-1 cells were purchased from the American Type Culture Collection and sub-cultured according to instructions from the supplier. Prior to experiments, cells were cultured in RPMI 1640 containing 10% heat inactivated FBS, penicillin (100 units/ml) and streptomycin (100 μg/ml), and maintained in log phase prior to experimental setup. Prior to the experiment THP-1 were treated with PMA (Phorbol 12-myristate 13-acetate) (10 μg/ml) for 24 hours. The day of the experiment the media was removed and attaching cells were treated with trypsin for 2 minutes, cells were then collected, washed with PBS (phosphate buffer saline), spin down, resuspended in 2% heat inactivated FBS with RPMI at a concentration of 1×10^6 cells/ml, and 100 ul was plated in a 96 well plate. Cells were incubated with compounds for 1 hours and then stimulated with Gramicidin (5 μM) (Enzo) for 2 hours. Cell free supernatant was collected and the production of IL-1β was evaluated by ELISA. Compounds were dissolved in dimethyl sulfoxide (DMSO) and added to the culture medium to achieve desired concentration (e.g. 100, 30, 10, 3, 1, 0.3 or 0.1 μM). A vehicle only control was run concurrently with each experiment. Final DMSO concentration was 1%.
# THP-1 cells were purchased from the American Type Culture Collection and sub-cultured according to instructions from the supplier. Prior to experiments, cells were cultured in complete RPMI 1640 (containing 10% heat inactivated FBS, penicillin (100 units/ml) and streptomycin (100 μg/ml)), and maintained in log phase prior to experimental setup. Prior to the experiment THP-1 were treated with PMA (Phorbol 12-myristate 13-acetate) (20 ng/ml) for 16-18 hours. On the day of the experiment the media was removed and adherent cells were detached with trypsin for 5 minutes. Cells were then harvested, washed with complete RPMI 1640, spun down, resuspended in RPMI 1640 (containing 2% heat inactivated FBS, penicillin (100 units/ml) and streptomycin (100 μg/ml). The cells were plated in a 384-well plate at a density of 50,000 cells/well (final assay volume 50 μl). Compounds were dissolved in dimethyl sulfoxide (DMSO) and added to the culture medium to achieve desired concentration (e.g. 100, 33, 11, 3.7, 1.2, 0.41, 0.14, 0.046, 0.015, 0.0051, 0.0017 μM). Cells were incubated with compounds for 1 hour and then stimulated with gramicidin (5 μM) (Enzo) for 2 hours. Cell free supernatant was collected and the production of IL-10 was evaluated by HTRF (cisbio). A vehicle only control was run concurrently with each experiment. Final DMSO concentration was 0.38%.
# Compounds tested with protocols 1 and 2 provided IC50 values that are within the variability of the assay.
# Tables 12 and 13 show the biological activity of compounds in hTHP-1 assay containing 2% bovine serum: <1 μM=“++++”; ≥1 and <5 μM=“+++”; ≥5 and <15 μM=“++”; ≥15 and <60 μM=“+”.
Compound,"IC50 (Homo sapiens, THP-1)",IC50
"CC(C)c1cc(F)cc(C(C)C)c1CC(=O)NS(=O)(=O)c1ccc(S(C)(=O)=O)cc1 [Example 58, 2-(4-fluoro-2,6-diisopropylphenyl)-N-(4-(methylsulfonyl)phenylsulfonyl)acetamide]",1 to 5 µM,–
"CC(C)c1cc(C#N)cc(C(C)C)c1CC(=O)NS(=O)(=O)c1cc(Cl)cc(C(C)(C)O)c1 [Example 28, N-(3-chloro-5-(2-hydroxypropan-2-yl)phenylsulfonyl)-2-(4-cyano-2,6-diisopropylphenyl)acetamide]",1 to 5 µM,–
"CC(C)(O)c1cnc(S(=O)(=O)NC(=O)Cc2cc(C(F)(F)F)ccc2Cl)s1 [Example 87, 2-(2-chloro-5-(trifluoromethyl)phenyl)-N-(5-(2-hydroxypropan-2-yl)thiazol-2-ylsulfonyl)acetamide]",15 to 60 µM,–
"CC(C)c1cccc(C(C)C)c1CC(=O)NS(=O)(=O)c1ccc(C(C)(C)O)cc1 [Example 21, 2-(2,6-diisopropylphenyl)-N-(4-(2-hydroxypropan-2-yl)phenylsulfonyl)acetamide]",1 to 5 µM,–
"CC(C)(O)c1cnc(S(=O)(=O)NC(=O)Cc2c(C3CC3)cccc2C2CC2)s1 [Example 78, 2-(2,6-dicyclopropylphenyl)-N-(5-(2-hydroxypropan-2-yl)thiazol-2-ylsulfonyl)acetamide]",5 to 15 µM,–
"CC(C)c1ccc(F)c(C(C)C)c1CC(=O)NS(=O)(=O)c1ccc(C(C)(C)O)cc1 [Example 43, 2-(3-fluoro-2,6-diisopropylphenyl)-N-(4-(2-hydroxypropan-2-yl)phenylsulfonyl)acetamide]",1 to 5 µM,–
"CC(C)c1cc(F)cc(C(C)C)c1CC(=O)NS(=O)(=O)c1cc(C2(O)CC2)cs1 [Example 15, 2-(4-fluoro-2,6-diisopropylphenyl)-N-(4-(1-hydroxycyclopropyl)thiophen-2-ylsulfonyl)acetamide]",1 to 5 µM,–
"CC(C)c1ccc(F)c(C(C)C)c1CC(=O)NS(=O)(=O)c1ncc(C(C)(C)O)s1 [Example 71, 2-(3-fluoro-2,6-diisopropylphenyl)-N-(5-(2-hydroxypropan-2-yl)thiazol-2-ylsulfonyl)acetamide]",1 to 5 µM,–
"CC(C)c1cc(C#N)cc(C(C)C)c1CC(=O)NS(=O)(=O)c1cc(-c2ccccc2)cc(C(C)(C)O)c1 [Example 33, 2-(4-cyano-2,6-diisopropylphenyl)-N-(5-(2-hydroxypropan-2-yl)biphenyl-3-ylsulfonyl)acetamide]",5 to 15 µM,–
"CC(C)c1cc(C#N)cc(C(C)C)c1CC(=O)NS(=O)(=O)c1cc(C(C)(C)O)n(C)n1 [Example 68, 2-(4-cyano-2,6-diisopropylphenyl)-N-(5-(2-hydroxypropan-2-yl)-1-methyl1H-pyrazol-3-ylsulfonyl)acetamide]",5 to 15 µM,–
"CC(C)c1cc(F)cc(C(C)C)c1CC(=O)NS(=O)(=O)c1ncc(CCO)s1 [Example 97, 2-(4-fluoro-2,6-diisopropylphenyl)-N-(5-(2-hydroxyethyl)thiazol-2-ylsulfonyl)acetamide]",5 to 15 µM,–
"CC(C)(O)c1coc(S(=O)(=O)NC(=O)Cc2c3c(cc4c2CCC4)CCC3)c1 [Example 1, 2-(1,2,3,5,6,7-Hexahydros-indacen-4-yl)-N-(4-(2-hydroxypropan-2-yl)furan-2-ylsulfonyl)acetamide]",5 to 15 µM,–

# The next lines start with the values.
"IC50 (Homo sapiens, THP-1)",IC50,Compound
< 1 µM,–,"CC(C)c1cc(F)cc(C(C)C)c1CC(=O)NS(=O)(=O)c1cc(C(C)(C)O)cs1 [Example 9, 2-(4-fluoro-2,6-diisopropylphenyl)-N-(4-(2-hydroxypropan-2-yl)thiophen-2-ylsulfonyl)acetamide]"
1 to 5 µM,–,"COC(C)(C)c1cnc(S(=O)(=O)NC(=O)Cc2c(C(C)C)cc(F)cc2C(C)C)s1 [Example 73, 2-(4-fluoro-2,6-diisopropylphenyl)-N-(5-(2-methoxypropan-2-yl)thiazol-2-ylsulfonyl)acetamide]"
5 to 15 µM,–,"Cc1c(C(C)(C)O)cccc1S(=O)(=O)NC(=O)Cc1c(C(C)C)cc(F)cc1C(C)C [Example 44, 2-(4-fluoro-2,6-diisopropylphenyl)-N-(3-(2-hydroxypropan-2-yl)-2-methylphenylsulfonyl)acetamide]"
1 to 5 µM,–,"CC(C)c1cc(F)cc(C(C)C)c1CC(=O)NS(=O)(=O)c1cc(C(C)(C)O)n(-c2ccccc2)n1 [Example 64, 2-(4-fluoro-2,6-diisopropylphenyl)-N-(5-(2-hydroxypropan-2-yl)-1-phenyl-1H-pyrazol-3-ylsulfonyl)acetamide]"
–,1 to 5 µM,CC(=O)c1ccc(F)c(S(=O)(=O)NC(=O)Cc2c(C(C)C)cc(F)cc2C(C)C)c1 [Example 55]
< 1 µM,–,"CC(C)c1c(F)c(Cl)c(F)c(C(C)C)c1CC(=O)NS(=O)(=O)c1ncc(C(C)(C)O)s1 [Example 83, 2-(4-chloro-3,5-difluoro-2,6-diisopropylphenyl)-N-(5-(2-hydroxypropan-2-yl)thiazol-2-ylsulfonyl)acetamide]"
< 1 µM,–,"CC(C)c1c(F)c(Cl)c(F)c(C(C)C)c1CC(=O)NS(=O)(=O)c1cc(C(C)(C)O)cs1 [Example 12, 2-(4-chloro-3,5-difluoro-2,6-diisopropylphenyl)-N-(4-(2-hydroxypropan-2-yl)thiophen-2-ylsulfonyl)acetamide]"
–,5 to 15 µM,"CC(C)(O)c1csc(S(=O)(=O)NC(=O)Cc2c3c(cc4c2CCC4)CCC3)c1 [Example 7, 2-(1,2,3,5,6,7-hexahydro-sindacen-4-yl)-N-(4-(2-hydroxypropan-2-yl)thiophen-2-ylsulfonyl)acetamide]"
5 to 15 µM,–,"CC(C)c1cc(F)cc(C(C)C)c1CC(=O)NS(=O)(=O)c1ccn(C(C)C)n1 [Example 62, 2-(4-fluoro-2,6-diisopropylphenyl)-N-(1-isopropyl-1H-pyrazol-3-ylsulfonyl)acetamide]"
5 to 15 µM,–,"CC(C)c1cc(F)cc(C(C)C)c1CC(=O)NS(=O)(=O)c1cc(C(C)(C)O)cc(C(C)(C)O)c1 [Example 30, N-(3,5-bis(2-hydroxypropan-2-yl)phenylsulfonyl)-2-(4-fluoro-2,6-diisopropylphenyl)acetamide]"
5 to 15 µM,–,"CC(C)c1cc(F)cc(C(C)C)c1CC(=O)NS(=O)(=O)c1ncc(C(C)CO)s1 (stereo not drawn) [Example 96, 2-(4-Fluoro-2,6-diisopropylphenyl)-N-(5-(1-hydroxypropan-2-yl)thiazol-2-ylsulfonyl)acetamide]"
1 to 5 µM,–,"CC(C)c1cc(F)cc(C(C)C)c1CC(=O)NS(=O)(=O)c1ccc(C(C)(C)O)s1 [Example 13, 2-(4-fluoro-2,6-diisopropylphenyl)-N-(5-(2-hydroxypropan-2-yl)thiophen-2-ylsulfonyl)acetamide]"
5 to 15 µM,–,"CC(C)c1cc(C#N)cc(C(C)C)c1CC(=O)NS(=O)(=O)c1cc(C(C)(C)O)cc(C(C)(C)O)c1 [Example 31, N-(3,5-bis(2-hydroxypropan-2-yl)phenylsulfonyl)-2-(4-cyano-2,6-diisopropylphenyl)acetamide]"
< 1 µM,–,"CC(C)c1cc(F)c(F)c(C(C)C)c1CC(=O)NS(=O)(=O)c1ncc(C(C)(C)O)s1 [Example 76, 2-(3,4-difluoro-2,6-diisopropylphenyl)-N-(5-(2-hydroxypropan-2-yl)thiazol-2-ylsulfonyl)acetamide]"
1 to 5 µM,–,"Cc1c(C(C)(C)O)csc1S(=O)(=O)NC(=O)Cc1c(C(C)C)cc(F)cc1C(C)C [Example 19, 2-(4-fluoro-2,6-diisopropylphenyl)-N-(4-(2-hydroxypropan-2-yl)-3-methylthiophen-2-ylsulfonyl)acetamide]"
